Measurements as given in patent US10654816B2, “Compounds and compositions for treating conditions associated with NLRP activity” (NOVARTIS INFLAMMASOME RESEARCH, INC., priority 2017, dated 2020).
Like-named read-outs stand apart in the source and are kept apart here.

Test system: IL-1β production in PMA-differentiated THP-1 cells
Assay: IL-1β production in PMA-differentiated THP-1 cells stimulated with gramicidin (hTHP-1 assay, HTRF readout; Procedures 1-3)
Type: cell-based, human
Settings: Homo sapiens, THP-1, hTHP-1 assay containing 2% fetal bovine serum, average, read-out: hTHP-1 IC50 (Average IC50 of compounds in hTHP-1 assay)
Description: The Following Protocol is Suitable for Testing the Activity of the Compounds Disclosed Herein. Procedure 1: IL-1B Production in PMA-Differentiated THP-1 Cells Stimulated with Gramicidin.
THP-1 cells were purchased from the American Type Culture Collection and sub-cultured according to instructions from the supplier. Cells were cultured in complete RPMI 1640 (containing 10% heat inactivated FBS, penicillin (100 units/ml) and streptomycin (100 μg/ml)), and maintained in log phase prior to experimental setup. Prior to the experiment, compounds were dissolved in dimethyl sulfoxide (DMSO) to generate a 30 mM stock. The compound stock was first pre-diluted in DMSO to 3, 0.34, 0.042 and 0.0083 mM intermediate concentrations and subsequently spotted using Echo550 liquid handler into an empty 384-well assay plate to achieve desired final concentration (e.g. 100, 33, 11, 3.7, 1.2, 0.41, 0.14, 0.046, 0.015, 0.0051, 0.0017 μM). DMSO was backfilled in the plate to achieve a final DMSO assay concentration of 0.37%. The plate was then sealed and stored at room temperature until required.
THP-1 cells were treated with PMA (Phorbol 12-myristate 13-acetate) (20 ng/ml) for 16-18 hours. On the day of the experiment the media was removed and adherent cells were detached with trypsin for 5 minutes. Cells were then harvested, washed with complete RPMI 1640, spun down, and resuspended in RPMI 1640 (containing 2% heat inactivated FBS, penicillin (100 units/ml) and streptomycin (100 μg/ml). The cells were plated in the 384-well assay plate containing the spotted compounds at a density of 50,000 cells/well (final assay volume 50 μl). Cells were incubated with compounds for 1 hour and then stimulated with gramicidin (5 μM) (Enzo) for 2 hours. Plates were then centrifuged at 340 g for 5 min. Cell free supernatant (40 μL) was collected using a 96-channel PlateMaster (Gilson) and the production of IL-1β was evaluated by HTRF (cisbio). The plates were incubated for 18 h at 4° C. and read using the preset HTRF program (donor emission at 620 nm, acceptor emission at 668 nm) of the SpectraMax i3x spectrophotometer (Molecular Devices, software SoftMax 6). A vehicle only control and a dose titration of CRID3 (100-0.0017 μM) were run concurrently with each experiment.
Procedure 2: IL-1β Production in PMA-Differentiated THP-1 Cells Stimulated with Gramicidin.
THP-1 cells were purchased from the American Type Culture Collection and sub-cultured according to instructions from the supplier. Prior to experiments, cells were cultured in complete RPMI 1640 (containing 10% heat inactivated FBS, penicillin (100 units/ml) and streptomycin (100 μg/ml)), and maintained in log phase prior to experimental setup. Prior to the experiment THP-1 were treated with PMA (Phorbol 12-myristate 13-acetate) (20 ng/ml) for 16-18 hours. Compounds were dissolved in dimethyl sulfoxide (DMSO) to generate a 30 mM stock.
On the day of the experiment the media was removed and adherent cells were detached with trypsin for 5 minutes. Cells were then harvested, washed with complete RPMI 1640, spun down, resuspended in RPMI 1640 (containing 2% heat inactivated FBS, penicillin (100 units/ml) and streptomycin (100 μg/ml). The cells were plated in a 384-well plate at a density of 50,000 cells/well (final assay volume 50 μl). Compounds were first dissolved in assay medium to obtain a 5× top concentration of 500 μM. 10 step dilutions (1:3) were then undertaken in assay medium containing 1.67% DMSO. 5× compound solutions were added to the culture medium to achieve desired final concentration (e.g. 100, 33, 11, 3.7, 1.2, 0.41, 0.14, 0.046, 0.015, 0.0051, 0.0017 μM). Final DMSO concentration was at 0.37%. Cells were incubated with compounds for 1 hour and then stimulated with gramicidin (5 μM) (Enzo) for 2 hours. Plates were then centrifuged at 340 g for 5 min. Cell free supernatant (40 μL) was collected using a 96-channel PlateMaster (Gilson) and the production of IL-1β was evaluated by HTRF (cisbio). […]

[1] = numeric bound printed without unit

Row | Compound | IC50 (class symbols) [µM] | IC50 (given as bound) [µM] | further results
1 | Cc1oc([S@](N)(=O)=NC(=O)Nc2c3c(cc4c2CCC4)CCC3)cc1C(C)(C)O (single isomer, unassigned) [Example 3] | 0.2 to 1 | – | –
2 | CC(C)c1cc(F)cc(C(C)C)c1NC(=O)N=S(N)(=O)c1ccc(C(C)(C)O)cc1 (single isomer, unassigned) [Example 83, (S)- or (R)-N′-(4-fluoro-2,6-diisopropylphenylcarbamoyl)-4-(2-hydroxypropan-2-yl)benzenesulfonimidamide] | 1 to 5 | – | –
3 | CC(C)c1cc(F)cc(C(C)C)c1NC(=O)N=S(N)(=O)c1ccc(C(C)(C)O)cc1 (single isomer, unassigned) [Example 84, (R)- or (S)-N′-(4-fluoro-2,6-diisopropylphenylcarbamoyl)-4-(2-hydroxypropan-2-yl)benzenesulfonimidamide] | – | > 30 | –
4 | Cc1cc(C(C)(C)O)sc1S(N)(=O)=NC(=O)Nc1c(C(C)C)cc(OC(F)F)cc1C(C)C (single isomer, unassigned) [Example 109, (S)- or (R)-N′-(4-(difluoromethoxy)-2,6-diisopropylphenylcarbamoyl)-5-(2-hydroxypropan-2-yl)-3-methylthiophene-2-sulfonimidamide] | 0.2 to 1 | – | –
5 | Cc1cc(C(C)(C)O)sc1S(N)(=O)=NC(=O)Nc1c(C(C)C)cc(OC(F)F)cc1C(C)C (single isomer, unassigned) [Example 110, (R)- or (S)-N′-(4-(difluoromethoxy)-2,6-diisopropylphenylcarbamoyl)-5-(2-hydroxypropan-2-yl)-3-methylthiophene-2-sulfonimidamide] | – | > 30 | –
6 | Cc1cc(C(C)(C)O)ccc1S(N)(=O)=NC(=O)Nc1c(C(C)C)cc(OC(F)F)cc1C1CC1 (single isomer, unassigned) [Example 119, (S)- or (R)-N′-(2-cyclopropyl-4-(difluoromethoxy)-6-isopropylphenylcarbamoyl)-4-(2-hydroxypropan-2-yl)-2-methylbenzenesulfonimidamide] | 5 to 30 | – | –
7 | Cc1cc(C(C)(C)O)ccc1S(N)(=O)=NC(=O)Nc1c(C(C)C)cc(OC(F)F)cc1C1CC1 (single isomer, unassigned) [Example 120, (R)- or (S)-N′-(2-cyclopropyl-4-(difluoromethoxy)-6-isopropylphenylcar-bamoyl)-4-(2-hydroxypropan-2-yl)-2-methylbenzenesulfonimidamidc] | – | > 30 | –
8 | CC(C)c1cc(F)cc(C(C)C)c1NC(=O)N=S(N)(=O)c1ccc(CN(C)C)cc1 (single isomer, unassigned) [Example 132, (S)- or (R)-4-((dimethylamino)-methyl)-N′-(4-fluoro-2,6-diisopropylphenylcarbamoyl)-benzenesulfonimidamide] | 1 to 5 | – | –
9 | CC(C)c1cc(F)cc(C(C)C)c1NC(=O)N=S(N)(=O)c1ccc(CN(C)C)cc1 (single isomer, unassigned) [Example 133, (R)- or (S)-4-((dimethylamino)methyl)-N′-(4-fluoro-2,6-diisopropylphenyl-carbamoyl)benzenesulfonimidamide] | – | > 30 | –
10 | CC(C)c1cc(OC(F)F)cc(C2CC2)c1NC(=O)N=S(N)(=O)c1ccc(CN(C)C)cc1 (single isomer, unassigned) [Example 134, (S)- or (R)-N′-(2-cyclopropyl-4-(difluoromethoxy)-6-isopropylphenylcarbamoyl)-4-((dimethylamino)methyl)benzenesulfonimidamide] | – | > 30 | –
11 | CC(C)c1cc(OC(F)F)cc(C2CC2)c1NC(=O)N=S(N)(=O)c1ccc(CN(C)C)cc1 (single isomer, unassigned) [Example 135, (R)- or (S)-N′-(2-cyclopropyl-4-(difluoromethoxy)-6-isopropylphenylcarbamoyl)-4-((dimethylamino)methyl)benzenesulfonimidamide] | 1 to 5 | – | –
12 | CC(C)c1cc(F)cc(C(C)C)c1NC(=O)N=S(N)(=O)c1ccc(S(C)(=O)=O)cc1 (single isomer, unassigned) [Example 144, (S)- or (R)-N′-(4-fluoro-2,6-diisopropylphenylcarbamoyl)-4-(methylsulfonyl)-benzenesulfonimidamide] | – | > 30 | –
13 | CC(C)c1cc(F)cc(C(C)C)c1NC(=O)N=S(N)(=O)c1ccc(S(C)(=O)=O)cc1 (single isomer, unassigned) [Example 145, (R)- or (S)-N′-(4-fluoro-2,6-diisopropylphenylcarbamoyl)-4-(methylsulfonyl)-benzenesulfonimidamide] | 5 to 30 | – | –
14 | CC(C)c1cc(OC(F)F)cc(C2CC2)c1NC(=O)N=S(N)(=O)c1ccc(C(C)(C)O)cc1F (single isomer, unassigned) [Example 166, (S)- or (R)-N′-((2-cyclopropyl-4-(difluoromethoxy)-6-isopropylphoxyproyl)-2-fluoro-4-(2-hydroxypropan-2-yl)benzenesulfonimidamide] | 0.2 to 1 | – | –
15 | CC(C)c1cc(OC(F)F)cc(C2CC2)c1NC(=O)N=S(N)(=O)c1ccc(C(C)(C)O)cc1F (single isomer, unassigned) [Example 167, (R)- or (S)-N′-((2-cyclopropyl-4-(difluoromethoxy)-6-isopropylphenyl)carbamoyl)-2-fluoro-4-(2-hydroxypropan-2-yl)benzenesulfonimidamide] | – | – | IC50 [1]: > 11.2 µM
16 | CC(C)(O)c1ccc(F)c(S(N)(=O)=NC(=O)Nc2c3c(c(F)c4c2CCC4)CCC3)c1 (single isomer, unassigned) [Example 169, (S)- or (R)-2-fluoro-N′-((8-fluoro-1,2,3,5,6,7-hexahydro-s-indacen-4-yl)carbamoyl)-5-(2-hydroxypropan-2-yl)benzenesulfonimidamide] | – | – | IC50 [1]: > 5.59 µM

Now from value to compound, other results behind:

Row | IC50 (class symbols) [µM] | IC50 (given as bound) [µM] | Compound | further results
17 | 0.2 to 1 | – | CC(C)(O)c1ccc(F)c(S(N)(=O)=NC(=O)Nc2c3c(c(F)c4c2CCC4)CCC3)c1 (single isomer, unassigned) [Example 168, (S)- or (R)-2-fluoro-N′-((8-fluoro-1,2,3,5,6,7-hexahydro-s-indacen-4-yl)carbamoyl)-5-(2-hydroxypropan-2-yl)benzenesulfonimidamide] | –
18 | 1 to 5 | – | CC(C)c1cc(C#N)cc(C(C)C)c1NC(=O)N=S(N)(=O)c1ccc(C(C)(C)O)c(CO)c1 (single isomer, unassigned) [Example 188, (S)- or (R)-N′-((4-cyano-2,6-diisopropylphenyl)carbamoyl)-3-(hydroxymethyl)-4-(2-hydroxypropan-2-yl)benzenesulfonimidamide] | –
19 | – | > 30 | CC(C)c1cc(C#N)cc(C(C)C)c1NC(=O)N=S(N)(=O)c1ccc(C(C)(C)O)c(CO)c1 (single isomer, unassigned) [Example 189, (R)- or (S)-N′-((4-cyano-2,6-diisopropylphoxyproyl)-3-(hydroxymethyl)-4-(2-hydroxypropan-2-yl)benzenesulfonimidamide] | –
20 | 0.2 to 1 | – | CC(C)c1cc(C#N)cc(C(C)C)c1NC(=O)N=S(N)(=O)c1sc(C(C)(C)O)nc1CO (single isomer, unassigned) [Example 192, (S)- or (R)-N′-((4-cyano-2,6-diisopropylphenyl)carbamoyl)-4-(hydroxymethyl)-2-(2-hydroxypropan-2-yl)thiazole-5-sulfonimidamide] | –
